Results: patent US20240082277A1, “MODIFIED ANTIHISTAMINE COMPOSITION AND ANTIVIRAL TREATMENT” (priority 2022, published 2024)
In brackets after ≈: the same amount, converted by molar mass. Where a name gives a salt, the structure may show the parent alone. Read-outs that look alike come from different tables or passages of the source.

Assays:
[1] = biological target: T1, human H1 histamine receptors (HRH1) (Homo sapiens, UniProt P35367); test: HRH1 antagonist calcium flux assay (Fluo-8, FLIPR TETRA) in CHO-K1 cells; assay type: cell-based
T1 construct: expressed in transfected cells; host or cells: CHO-K1

[2] = system: SARS-CoV-2 Delta (B.1.617.2)
in vitro = conditions: African green monkey, Cytotoxicity (CC50)
[3] = system: SARS-CoV-2 Delta (B.1.617.2); test: microbe, parasite or virus in culture
[4] = system: SARS-CoV-2 Omicron (B.1.1.529); test: microbe, parasite or virus in culture
[5] = system: SARS-CoV-2 Omicron (B.1.1.529)
[6] = CHO-K1, read-out: Normalized % Inhibition
[7] = Severe acute respiratory syndrome coronavirus 2, VeroE6/TMPRSS2, read-out: % cell viability

T1 sequence (P35367 whole entry): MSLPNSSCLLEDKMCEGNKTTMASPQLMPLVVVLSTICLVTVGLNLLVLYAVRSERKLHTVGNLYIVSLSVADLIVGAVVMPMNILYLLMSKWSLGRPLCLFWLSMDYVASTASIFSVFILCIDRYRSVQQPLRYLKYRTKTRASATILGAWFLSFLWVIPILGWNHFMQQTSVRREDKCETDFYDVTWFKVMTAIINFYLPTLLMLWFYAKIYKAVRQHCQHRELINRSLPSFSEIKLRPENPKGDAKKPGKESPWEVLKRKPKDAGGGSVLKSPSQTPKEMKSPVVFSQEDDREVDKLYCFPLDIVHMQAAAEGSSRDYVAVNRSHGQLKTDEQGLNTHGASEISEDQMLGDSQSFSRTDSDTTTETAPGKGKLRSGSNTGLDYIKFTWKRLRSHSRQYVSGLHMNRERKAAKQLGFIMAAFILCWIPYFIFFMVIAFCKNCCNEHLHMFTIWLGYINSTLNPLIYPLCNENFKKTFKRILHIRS

With `O=C(O)COCCN1CCN(C(c2ccccc2)c2ccc(Cl)cc2)CC1` (stereo not shown) [Cetirizine Dihydrochloride] as the compound, how does the inhibition at 0.01 µM [1, 6] read?
The inhibition at 0.01 µM was 23.9%.

And the inhibition at 0.03 µM [1, 6]?
The inhibition at 0.03 µM was 23.6%.

And the inhibition at 0.1 µM [1, 6]?
The inhibition at 0.1 µM was 15.3%.

What about the inhibition at 0.3 µM [1, 6] of the same compound?
The inhibition at 0.3 µM was 14.2%.

What about the inhibition at 1 µM [1, 6] of the same compound?
The inhibition at 1 µM was 31.3%.

What about the inhibition at 3 µM [1, 6] of the same compound?
Its inhibition at 3 µM is 67.3%.

And the inhibition at 10 µM [1, 6]?
Its inhibition at 10 µM is 98.9%.

And the inhibition at 100 µM [1, 6]?
The inhibition at 100 µM was 99.3%.

And the inhibition at 30 µM ([1]; CHO-K1, 30000 nM, antagonist assay vs 70 nM histamine, read-out: Normalized % Inhibition)?
The inhibition at 30 µM was 100%.

Which results are given for `CN(C)CCOC(c1ccccc1)c1ccccc1` [Diphenhydramine hydrochloride, reference compound]?
Effect on percentage infection (in words) [2]: slight reduction in percentage infection was seen; Effect on percentage infection (in words) ([2]; Therapeutic treatment, Delta strain): slight reduction in percentage infection was seen

Which “RLU (maximum Relative Light Unit)” value [1] does the source give for `NCCc1c[nH]cn1` [Histamine] here?
The value was 3431.5 RLU.

Which CC50 (in vitro) does the source give for `CN(C)CCO[Si](C)(c1ccccc1)c1ccccc1` [Q-Ant #8, N,N-dimethyl-2-((methyldiphenylsilyl)oxy)ethan-1-amine] here?
The CC50 was 613 µg/mL (≈ 2150 µM).

What about the “Effect on percentage infection (in words)” value [2] of the same compound?
Its value is “No effect was seen”.

What about the “Efficacy (EC50) Delta” value [2] of the same compound?
Its value is 483.0 µg/mL.

And the “Selectivity index Delta (CC50/EC50)” value ([2]; Therapeutic treatment)?
The value was 0.86.

What about the “Cytotoxicity (CC50)” value (Vero E6 TMPRSS2 cells; African green monkey) of the same compound?
The value was 415.3 µg/mL.

And the “Toxicity (in words)” value (Vero E6 TMPRSS2 cells; compared with traditional antihistamines)?
Its value is “less toxic than traditional antihistamines”.

What about the viability at 0.318 µg/mL [3, 7] of the same compound?
The viability at 0.318 µg/mL was 102%.

What about the viability at 1.004 µg/mL [3, 7] of the same compound?
Its viability at 1.004 µg/mL is 93.9%.

What about the viability at 3.174 µg/mL [3, 7] of the same compound?
Its viability at 3.174 µg/mL is 95%.

What about the viability at 10.029 µg/mL [3, 7] of the same compound?
The viability at 10.029 µg/mL was 100%.

What about the viability at 31.691 µg/mL [3, 7] of the same compound?
Its viability at 31.691 µg/mL is 99.4%.

And the viability at 100.144 µg/mL [3, 7]?
The viability at 100.144 µg/mL was 98.2%.

And the viability at 316.456 µg/mL [3, 7]?
The viability at 316.456 µg/mL was 73.5%.

And the viability at 0.318 µg/mL [4, 7]?
Its viability at 0.318 µg/mL is 105%.

And the viability at 1.004 µg/mL [4, 7]?
The viability at 1.004 µg/mL was 91.3%.

And the viability at 3.174 µg/mL [4, 7]?
The viability at 3.174 µg/mL was 96.8%.

What about the viability at 10.029 µg/mL [4, 7] of the same compound?
The viability at 10.029 µg/mL was 105%.

And the viability at 31.691 µg/mL [4, 7]?
The viability at 31.691 µg/mL was 101%.

And the viability at 100.144 µg/mL [4, 7]?
The viability at 100.144 µg/mL was 89.8%.

What about the viability at 316.456 µg/mL [4, 7] of the same compound?
The viability at 316.456 µg/mL was 36.8%.

And the “Effect on percentage infection (in words)” value [5]?
Its value is “reduction in percentage infection was seen”.

And the “Efficacy (EC50) Omicron” value [5]?
Its value is 245.6 µg/mL.

What about the “Selectivity index Omicron (CC50/EC50)” value ([5]; Therapeutic treatment) of the same compound?
The value was 1.69.

And the IC50 [1]?
The IC50 was 33.5 nM.

And the inhibition at 1 µM [1, 6]?
The inhibition at 1 µM was 97.7%.

What about the inhibition at 0.0003 µM ([1]; CHO-K1, 0.3 nM, antagonist assay vs 70 nM histamine, read-out: Normalized % Inhibition) of the same compound?
The inhibition at 0.0003 µM was -32.6%.

What about the inhibition at 0.001 µM ([1]; CHO-K1, 1 nM, antagonist assay vs 70 nM histamine, read-out: Normalized % Inhibition) of the same compound?
Its inhibition at 0.001 µM is -33.4%.

And the inhibition at 0.003 µM ([1]; CHO-K1, 3 nM, antagonist assay vs 70 nM histamine, read-out: Normalized % Inhibition)?
The inhibition at 0.003 µM was -31%.

What about the inhibition at 0.01 µM ([1]; CHO-K1, 10 nM, antagonist assay vs 70 nM histamine, read-out: Normalized % Inhibition) of the same compound?
The inhibition at 0.01 µM was -11.9%.

What about the inhibition at 0.03 µM ([1]; CHO-K1, 30 nM, antagonist assay vs 70 nM histamine, read-out: Normalized % Inhibition) of the same compound?
The inhibition at 0.03 µM was 29.4%.

What about the inhibition at 0.1 µM ([1]; CHO-K1, 100 nM, antagonist assay vs 70 nM histamine, read-out: Normalized % Inhibition) of the same compound?
Its inhibition at 0.1 µM is 72.9%.

What about the inhibition at 0.3 µM ([1]; CHO-K1, 300 nM, antagonist assay vs 70 nM histamine, read-out: Normalized % Inhibition) of the same compound?
The inhibition at 0.3 µM was 97.1%.

Which viability at 0.004 µg/mL [3, 7] does the source give for `CCC(CC)COC(=O)[C@H](C)N[P@](=O)(OC[C@H]1O[C@@](C#N)(c2ccc3c(N)ncnn23)[C@H](O)[C@@H]1O)Oc1ccccc1` [Remdesivir] here?
The viability at 0.004 µg/mL was 105%.

And the viability at 0.012 µg/mL [3, 7]?
The viability at 0.012 µg/mL was 91.3%.

What about the viability at 0.038 µg/mL [3, 7] of the same compound?
Its viability at 0.038 µg/mL is 96.8%.

What about the viability at 0.12 µg/mL [3, 7] of the same compound?
The viability at 0.12 µg/mL was 105%.

And the viability at 0.38 µg/mL [3, 7]?
Its viability at 0.38 µg/mL is 101%.

What about the viability at 1.202 µg/mL [3, 7] of the same compound?
The viability at 1.202 µg/mL was 89.8%.

What about the viability at 3.797 µg/mL [3, 7] of the same compound?
Its viability at 3.797 µg/mL is 36.8%.

And the EC50 ([3]; Severe acute respiratory syndrome coronavirus 2, VeroE6/TMPRSS2, read-out: Efficacy (EC50) Delta)?
The EC50 was roughly 3 µg/mL (≈ 4.98 µM).

And the viability at 0.004 µg/mL [4, 7]?
The viability at 0.004 µg/mL was 101%.

What about the viability at 0.012 µg/mL [4, 7] of the same compound?
Its viability at 0.012 µg/mL is 95.9%.

And the viability at 0.038 µg/mL [4, 7]?
The viability at 0.038 µg/mL was 106%.

What about the viability at 0.12 µg/mL [4, 7] of the same compound?
Its viability at 0.12 µg/mL is 105%.

And the viability at 0.38 µg/mL [4, 7]?
Its viability at 0.38 µg/mL is 92.8%.

And the viability at 1.202 µg/mL [4, 7]?
Its viability at 1.202 µg/mL is 84.1%.

What about the viability at 3.797 µg/mL [4, 7] of the same compound?
The viability at 3.797 µg/mL was 44.6%.

And the viability at 12 µg/mL [4, 7]?
Its viability at 12 µg/mL is 20.7%.

And the EC50 ([4]; Severe acute respiratory syndrome coronavirus 2, VeroE6/TMPRSS2, read-out: Efficacy (EC50) Omicron)?
Its EC50 is roughly 3 µg/mL (≈ 4.98 µM).
